Test results as given in PMC6883173 (Nature, 2019).

Legend:
SpoT1–387 = SpoT1–387 (Pseudomonas aeruginosa, UniProt Q9HTM0); experiment: NDK/PK/LDH coupled NADH assay; type: biochemical
PurF^EC = PurF^EC (Escherichia coli, UniProt P0AG16); experiment: coupled PurD/PK/LDH NADH assay; type: biochemical; settings: 30 °C; 50 nM PurF, 5 mM glutamine, 1 mM pRpp-Mg, 10 mM MgCl2, pH 7.4
crystal structure = biological target: the molecule itself; experiment: crystal structure

Molecule: Nc1nc2c(ncn2[C@@H]2O[C@H](COP(=O)(O)OP(=O)(O)O)[C@@H](OP(=O)(O)OP(=O)(O)O)[C@H]2O)c(=O)[nH]1 [ppGpp]
- NDK/PK/LDH coupled NADH assay (A340) (SpoT1–387; 1 mM ppGpp, 10 uM enzyme, 5 mM MnCl2, 2 mM MgCl2, pH 7.4, 30 °C): ppGpp-hydrolyzing domain of SpoT was substantially less active on ppApp than ppGpp in vitro

Molecule: Nc1ncnc2c1ncn2[C@@H]1O[C@H](COP(=O)(O)OP(=O)(O)O)[C@@H](OP(=O)(O)OP(=O)(O)O)[C@H]1O [ppApp]
- NDK/PK/LDH coupled NADH assay (A340) (SpoT1–387; 1 mM ppApp, otherwise same): ppGpp-hydrolyzing domain of SpoT was substantially less active on ppApp than ppGpp in vitro
- activity versus concentration (PurF^EC): Changes to the activity of PurF^EC in the presence of indicated concentrations of ppGpp or ppApp

B1: PurF from E. coli (PurF^EC), glutamine amidophosphoribosyltransferase (enzyme, UniProt P0AG16 1-505, looked up)
chain: MCGIVGIAGVMPVNQSIYDALTVLQHRGQDAAGIITIDANNCFRLRKANGLVSDVFEARHMQRLQGNMGIGHVRYPTAGSSSASEAQPFYVNSPYGITLAHNGNLTNAHELRKKLFEEKRRHINTTSDSEILLNIFASELDNFRHYPLEADNIFAAIAATNRLIRGAYACVAMIIGHGMVAFRDPNGIRPLVLGKRDIDENRTEYMVASESVALDTLGFDFLRDVAPGEAIYITEEGQLFTRQCADNPVSNPCLFEYVYFARPDSFIDKISVYSARVNMGTKLGEKIAREWEDLDIDVVIPIPETSCDIALEIARILGKPYRQGFVKNRYVGRTFIMPGQQLRRKSVRRKLNANRAEFRDKNVLLVDDSIVRGTTSEQIIEMAREAGAKKVYLASAAPEIRFPNVYGIDMPSATELIAHGREVDEIRQIIGADGLIFQDLNDLIDAVRAENPDIQQFECSVFNGVYVTKDVDQGYLDFLDTLRNDDAKAVQRQNEVENLEMHNEG
- stoichiometry N (crystal structure): 4
